We go through three compounds from ChEMBL document CHEMBL3822390, “Synthesis, characterization and anti-cancer activity of a peptide nucleolipid bioconjugate” (2016).

Common to all, as to type: functional
Assay [1] in a line: Cytotoxicity against human IGROV1 cells assessed as cell growth at 2.13 uM after 48 hrs by SRB assay. To be noted: IGROV-1, 48 h, read-out: Activity.
Assay [2] in a line: Cytotoxicity against human NCI-ADR-RES cells assessed as cell growth at 2.13 uM after 48 hrs by SRB assay. The note with it: read-out: Activity.
The subject of assay [3] is ACHN. Put plainly: Cytotoxicity against human ACHN cells assessed as cell growth at 2.13 uM after 48 hrs by SRB assay. The note with it: read-out: Activity.
Assay [4] in a line: Cytotoxicity against human RXF393 cells assessed as cell growth at 2.13 uM after 48 hrs by SRB assay. The note with it: RXF 393, 48 h, read-out: Activity.
A further assay deals with SN12C. The assay can be described thus: Cytotoxicity against human SN12C cells assessed as cell growth at 2.13 uM after 48 hrs by SRB assay. The note with it: read-out: Activity.
Assay [5] can be described thus: Cytotoxicity against human UO31 cells assessed as cell growth at 2.13 uM after 48 hrs by SRB assay. To be noted: UO-31, 48 h, read-out: Activity.
A short description of assay [6]: Cytotoxicity against human HOP62 cells assessed as cell growth at 2.13 uM after 48 hrs by SRB assay. The note with it: HOP-62, 48 h, read-out: Activity.
The subject of a further assay is NCI-H23. The assay can be described thus: Cytotoxicity against human NCI-H23 cells assessed as cell growth at 2.13 uM after 48 hrs by SRB assay. To be noted: NCI-H23, 48 h, read-out: Activity.
Assay [7] concerns NCI-H460. The assay can be described thus: Cytotoxicity against human NCI-H460 cells assessed as cell growth at 2.13 uM after 48 hrs by SRB assay. The note with it: NCI-H460, 48 h, read-out: Activity.
The test system of a further assay is NCI-H226. Put plainly: Cytotoxicity against human NCI-H226 cells assessed as cell mortality at 10 uM after 48 hrs by SRB assay. The note with it: NCI-H226, 48 h.
For a further assay, the system named is SR. Put plainly: Cytotoxicity against human SR cells assessed as cell growth at 10 uM after 48 hrs by SRB assay. The note with it: read-out: Activity.
Assay [8] in a line: Cytotoxicity against human HOP62 cells assessed as cell growth at 10 uM after 48 hrs by SRB assay. The note with it: HOP-62, 48 h, read-out: Activity.
A short description of assay [9]: Cytotoxicity against human HCC2998 cells assessed as cell growth at 10 uM after 48 hrs by SRB assay. The note with it: HCC 2998, 48 h, read-out: Activity.
Assay [10] is described as follows: Cytotoxicity against human HCT116 cells assessed as cell growth at 10 uM after 48 hrs by SRB assay. The note with it: HCT-116, 48 h, read-out: Activity.
A short description of assay [11]: Cytotoxicity against human HCT15 cells assessed as cell growth at 10 uM after 48 hrs by SRB assay. The note with it: HCT-15, 48 h, read-out: Activity.
Assay [12] can be described thus: Cytotoxicity against human SF295 cells assessed as cell growth at 10 uM after 48 hrs by SRB assay. To be noted: SF-295, 48 h, read-out: Activity.
A short description of assay [13]: Cytotoxicity against human SF539 cells assessed as cell growth at 10 uM after 48 hrs by SRB assay. To be noted: SF-539, 48 h, read-out: Activity.
The test system of the next assay is U-251. Put plainly: Cytotoxicity against human U251 cells assessed as cell growth at 10 uM after 48 hrs by SRB assay. To be noted: U-251, 48 h, read-out: Activity.
Assay [14] is described as follows: Cytotoxicity against human LOXIMVI cells assessed as cell growth at 10 uM after 48 hrs by SRB assay. The note with it: LOX IMVI, read-out: Activity.
For a further assay, the system named is M14. The assay can be described thus: Cytotoxicity against human M14 cells assessed as cell growth at 10 uM after 48 hrs by SRB assay. To be noted: M14, 48 h, read-out: Activity.
The next assay concerns MDA-MB-435. Put plainly: Cytotoxicity against human MDA-MB-435 cells assessed as cell growth at 10 uM after 48 hrs by SRB assay. The note with it: MDA-MB-435, 48 h, read-out: Activity.
Assay [15] can be described thus: Cytotoxicity against human IGROV1 cells assessed as cell growth at 10 uM after 48 hrs by SRB assay. The note with it: IGROV-1, 48 h, read-out: Activity.
The nature of assay [16]: Cytotoxicity against human OVCAR5 cells assessed as cell growth at 10 uM after 48 hrs by SRB assay. To be noted: OVCAR-5, 48 h, read-out: Activity.
In a further assay the test system is A498. The assay can be described thus: Cytotoxicity against human A498 cells assessed as cell growth at 10 uM after 48 hrs by SRB assay. To be noted: A498, 48 h, read-out: Activity.
Assay [17] in a line: Cytotoxicity against human TK10 cells assessed as cell growth at 10 uM after 48 hrs by SRB assay. The note with it: TK-10, 48 h, read-out: Activity.
Assay [18] can be described thus: Cytotoxicity against human PC3 cells assessed as cell growth at 10 uM after 48 hrs by SRB assay. The note with it: PC-3, 48 h, read-out: Activity.
Assay [19] in a line: Cytotoxicity against human DU145 cells assessed as cell growth at 10 uM after 48 hrs by SRB assay. To be noted: DU-145, 48 h, read-out: Activity.
Assay [20] is described as follows: Cytotoxicity against human Hs 578T cells assessed as cell growth at 10 uM after 48 hrs by SRB assay. To be noted: read-out: Activity.
In the next assay the test system is A549. The assay can be described thus: Cytotoxicity against human A549 cells assessed as cell mortality at 7.25 uM after 48 hrs by SRB assay. To be noted: A549, 48 h.
Assay [21] can be described thus: Cytotoxicity against human HCT116 cells assessed as cell growth at 7.25 uM after 48 hrs by SRB assay. To be noted: HCT-116, 48 h, read-out: Activity.
Assay [22] in a line: Cytotoxicity against human SW620 cells assessed as cell growth at 7.25 uM after 48 hrs by SRB assay. To be noted: SW-620, 48 h, read-out: Activity.
Assay [23] in a line: Cytotoxicity against human SF268 cells assessed as cell growth at 7.25 uM after 48 hrs by SRB assay. To be noted: SF-268, 48 h, read-out: Activity.
The subject of another assay is Malme-3M. Put plainly: Cytotoxicity against human MALME-3M cells assessed as cell growth at 7.25 uM after 48 hrs by SRB assay. To be noted: read-out: Activity.
The next assay concerns SK-MEL-2. The assay can be described thus: Cytotoxicity against human SK-MEL-2 cells assessed as cell growth at 7.25 uM after 48 hrs by SRB assay. The note with it: SK-MEL-2, 48 h, read-out: Activity.
The nature of assay [24]: Cytotoxicity against human OVCAR3 cells assessed as cell growth at 7.25 uM after 48 hrs by SRB assay. The note with it: OVCAR-3, 48 h, read-out: Activity.
The test system of assay [25] is ACHN. The assay can be described thus: Cytotoxicity against human ACHN cells assessed as cell growth at 7.25 uM after 48 hrs by SRB assay. To be noted: read-out: Activity.
A short description of assay [26]: Cytotoxicity against human DU145 cells assessed as cell growth at 7.25 uM after 48 hrs by SRB assay. To be noted: DU-145, 48 h, read-out: Activity.
Assay [27] can be described thus: Cytotoxicity against human Hs 578T cells assessed as cell growth at 7.25 uM after 48 hrs by SRB assay. To be noted: read-out: Activity.
The nature of assay [28]: Cytotoxicity against human RPMI8226 cells assessed as cell growth at 7.25 uM after 48 hrs by SRB assay. The note with it: RPMI-8226, 48 h, read-out: Activity.
The test system of the next assay is EKVX. The assay can be described thus: Cytotoxicity against human EKVX cells assessed as cell growth at 7.25 uM after 48 hrs by SRB assay. The note with it: read-out: Activity.
Assay [29] is described as follows: Cytotoxicity against human HOP62 cells assessed as cell growth at 7.25 uM after 48 hrs by SRB assay. The note with it: HOP-62, 48 h, read-out: Activity.
In assay [30] the test system is NCI-H460. The assay can be described thus: Cytotoxicity against human NCI-H460 cells assessed as cell growth at 7.25 uM after 48 hrs by SRB assay. The note with it: NCI-H460, 48 h, read-out: Activity.

As to `CCCCCCCCCCCCCCCCNCCO[C@H]1C[C@H](n2cc(C)c(=O)[nH]c2=O)O[C@@H]1C(=O)NCCCC[C@H](NC(=O)[C@H](C)NC(=O)[C@H](CCCCN)NC(=O)[C@H](C)NC(=O)[C@H](CC(C)C)NC(=O)[C@H](CCCCN)NC(=O)[C@H](C)NC(=O)[C@H](CC(C)C)NC(=O)[C@H](CCCCN)NC(=O)[C@H](CCCCN)NC(=O)[C@H](C)NC(=O)[C@H](CC(C)C)NC(=O)[C@H](CCCCN)NC(=O)[C@H](C)NC(=O)[C@H](CC(C)C)NC(=O)[C@H](CCCCN)NC(=O)[C@@H](N)CC(=O)O)C(N)=O`, the growth at 2.13 µM in assay [1] turned out to be 107%; in assay [2], 109%; with ACHN [3] it was 106%; in [4] it was 113%; with SN12C, 103%; in [5], 81.2%. For the same compound, the growth at 2.13 µM amounted to 99.4% in assay [6], 106% in the assay on NCI-H23 and 109% with NCI-H460 [7].
Turning to `CC(C)C[C@H](NC(=O)[C@H](CCCCN)NC(=O)[C@H](C)NC(=O)[C@H](CC(C)C)NC(=O)[C@H](CCCCN)NC(=O)[C@H](CCCCN)NC(=O)[C@H](C)NC(=O)[C@H](CC(C)C)NC(=O)[C@H](CCCCN)NC(=O)[C@H](C)NC(=O)[C@H](CC(C)C)NC(=O)[C@H](CCCCN)NC(=O)[C@@H](N)CC(=O)O)C(=O)N[C@@H](C)C(=O)N[C@@H](CCCCN)C(=O)N[C@@H](C)C(=O)N[C@@H](CCCCN)C(N)=O`, the mortality at 10 µM in the assay on NCI-H226 was determined as 1%. Besides, the growth at 10 µM in the assay on SR is 85%; in [8], 104%; in assay [9] it was 100%; in assay [10] it was 92.1%; in assay [11] it was 108%; in assay [12], 103%. Also, the growth at 10 µM in assay [13] is 98%; with U-251 it was 94.6%; in [14], 97.2%; in the assay on M14 it was 108%; in the assay on MDA-MB-435, 108%; in assay [15] it was 107%. Besides, the growth at 10 µM in [16] stood at 98.6%; with A498, 115%; in [17], 94.4%; in assay [18] it was 94.7%; in [19], 109%; in assay [20] it was 107%.
`CCCCCCCCCCCCCCCC(=O)NCCCC[C@H](NC(=O)[C@H](C)NC(=O)[C@H](CCCCN)NC(=O)[C@H](C)NC(=O)[C@H](CC(C)C)NC(=O)[C@H](CCCCN)NC(=O)[C@H](C)NC(=O)[C@H](CC(C)C)NC(=O)[C@H](CCCCN)NC(=O)[C@H](CCCCN)NC(=O)[C@H](C)NC(=O)[C@H](CC(C)C)NC(=O)[C@H](CCCCN)NC(=O)[C@H](C)NC(=O)[C@H](CC(C)C)NC(=O)[C@H](CCCCN)NC(=O)[C@@H](N)CC(=O)O)C(N)=O`: in the assay on A549, the mortality at 7.25 µM came out at 32%. Further, the growth at 7.25 µM is 92.3% in assay [21]; 107% in [22]; 105% in [23]; 102% in the assay on Malme-3M; 93.1% in the assay on SK-MEL-2; 122% in assay [24]. For the same compound, the growth at 7.25 µM in the assay with ACHN [25] came to 99.3%; in assay [26] it was 123%; in assay [27], 101%; in [28] it was 103%; with EKVX it was 105%; in [29], 99.8%. Besides, the growth at 7.25 µM in the assay on NCI-H460 [30] is 107%.
